Literature values in patent US7517991B2, “N-sulfonylpiperidine cannabinoid receptor 1 antagonists” (Bristol-Myers Squibb Company, priority 2004, dated 2009).
Where two headings read alike, the source gives them in different places.

Key:
[1] = chronic administration for two weeks
[2] = human subjects, 16 week trial period, Phase IIb

Row | Structure (SMILES) | body weight [1] | body weight [2]
1 | Cc1c(C(=O)NN2CCCCC2)nn(-c2ccc(Cl)cc2Cl)c1-c1ccc(I)cc1 [AM-251] | substantial body weight reduction | 
2 | Cc1c(C(=O)NN2CCCCC2)nn(-c2ccc(Cl)cc2Cl)c1-c1ccc(Cl)cc1 [SR-141716] |  | dose-dependently reduced body weight
